Data on eleven molecules can be found in publication PMC9413995, “Synthesis and Assessment of the In Vitro and Ex Vivo Activity of Salicylate Synthase (Mbti) Inhibitors as New Candidates for the Treatment of Mycobacterial Infections” (Pharmaceuticals, 2022).

Data set [1] deals with T1, Recombinant M. tuberculosis MbtI (Mycobacterium tuberculosis, UniProt P9WFX1).
T1 construct: made in house
The data set can be described thus: MbtI enzymatic assay (fluorimetric). Type of data set: biochemical. The following applies: for IC50: MbtI activity, calculated for compounds showing %RA < 20; for % RA (percentage of residual enzymatic activity) / remaining activity at 100 µM: compound at 100 μM, 50 µM chorismic acid; for remaining activity at 100 µM: read-out: % RA (percentage of residual enzymatic activity). The method, then: Recombinant M. tuberculosis MbtI was produced and purified, and enzyme activity determined as previously reported. All the reactions were performed at 37 °C, in a final volume of 400 μL of 50 mM Hepes pH 7.5, 5 mM MgCl2, containing 1–2 μM MbtI, by the addition of chorismic acid, and monitored using a Perkin Elmer LS3 fluorimeter (Ex. λ = 305 nm, Em. λ = 420 nm). […] IC50 values were determined by measuring the activity at different concentrations of the compound, and using the following equation with GraphPad software:(1) A[I] =A[0] × 1−[I]/[I]+IC50
where A[I] is the activity at inhibitor concentration [I] and A[0] is the activity in the absence of the inhibitor.

Data set [2] deals with M. bovis BCG. The data set can be described thus: microbe, parasite or virus in culture. The data set is classed as cell-based. Particulars: iron-limiting chelated Sauton's medium, REMA, 15 days.
The subject of data set [3] is platelet (PLT), red blood cells (RBC), and white blood cells (WBC). Briefly: Blood cell count in whole blood of healthy volunteers. Particulars: 100 nM, 500 nM, 1 µM, up to 3 h, room temperature. The data set is classed as cell-based, human. As for the experimental part: (§1) Whole blood (WB), drawn with a 19-gauge needle without venous stasis into sodium citrate (0.129M, 1/10 volume/volume)-containing tubes (Vacutainer, Becton Dickinson), discarding the first 4 mL, was incubated with 1f (100 nM, 500 nM, and 1000 nM) or with solvent (DMSO; final dilution: 0.01%) up to 3 h at room temperature. Untreated (NT) WB of each healthy volunteer was used as a comparison.
(§2) PLT, RBC, and WBC counts were assessed at 0, 15, 30, 45, 60, 120 min and 3 h after the addition of 1f or solvent using Sysmex XE-2100 Automated Hematology Analyzer. Data were reported as count ± SD of each cell population. To evaluate the effect of 1f on platelet activation, conventional platelet activation markers [P-selectin and activated glycoprotein IIbIIIa (aGPIIbIIIa)], as well as platelet-associated tissue factor (TF) expression, were analyzed by WB flow cytometry as previously described at 0, 30 and 60 min after the addition of the highest concentration of 1f or solvent. […] Microvesicle formation, another well-known activation marker, was also assessed by flow cytometry at each time point after the addition of different concentrations of 1f or solvent. Fluorochrome-conjugated isotype controls were used to quantify the background labeling. […]

For a further data set, the system named is platelets. Briefly: Platelet activation assessment by whole blood flow cytometry. Type of data set: cell-based, human. The method, then:
as §1, §2
For orientation: A flow cytometer gives signals particle by particle.

Data set [4] relates to M. bovis BCG. Type of data set: cell-based.
In a further data set the test system is M. abscessus. The data set can be described thus: Infection assay of MPI-2-eGFP mAMs with M. abscessus tdTomato. Type of data set: cell-based.
Data set [5] has as its system M. bovis BCG. Type of data set: cell-based. The source holds these as a separate data set.
Data set [6] has as its system M. bovis BCG. Particulars: previous lead; cited from earlier work.
Where [7] appears, read: Mycobacterium tuberculosis variant bovis BCG, BCG, 360 h.

In brackets after ≈: the same amount, converted by molar mass. Several values for one entry are separate records, joined by “and”; a condition that tells them apart may be missing. Equal entries are not always repeated. Entries after “also recorded” stand apart in the source; their conditions may differ. Where two headings read alike, the source gives them in different places.

T1 sequence (P9WFX1 whole entry): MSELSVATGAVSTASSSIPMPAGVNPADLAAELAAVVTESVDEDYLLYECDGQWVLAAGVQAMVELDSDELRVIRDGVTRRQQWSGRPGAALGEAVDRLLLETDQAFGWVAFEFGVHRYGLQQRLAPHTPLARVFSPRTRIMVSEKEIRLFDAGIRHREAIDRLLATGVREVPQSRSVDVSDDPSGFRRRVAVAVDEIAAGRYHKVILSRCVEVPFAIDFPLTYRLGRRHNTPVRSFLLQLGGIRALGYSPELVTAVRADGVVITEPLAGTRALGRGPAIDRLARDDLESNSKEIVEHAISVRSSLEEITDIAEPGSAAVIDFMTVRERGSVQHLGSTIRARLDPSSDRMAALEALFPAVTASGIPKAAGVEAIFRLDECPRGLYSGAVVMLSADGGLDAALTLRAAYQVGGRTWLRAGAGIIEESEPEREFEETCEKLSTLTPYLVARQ

In general, IC50 refers to the concentration at which inhibition is half-maximal. For the molecule `N#Cc1cc(Oc2ccccc2)cc(-c2ccc(C(=O)O)o2)c1` [1a, 5-(3-Cyano-5-phenoxyphenyl)furan-2-carboxylic acid], in data set [1], the IC50 is 23.1 ± 2.6 µM, the “% RA (percentage of residual enzymatic activity)” value is 14.0 ± 4.1% and the remaining activity at 100 µM came to 14%. Besides, the MIC99 against M. bovis BCG [2] (setting [7]) came out at 125 µM (≈ 38.2 µg/mL).
What is called melting point is the temperature, or range, at which the solid turns liquid. On to `N#Cc1cc(OCc2ccccc2)cc(-c2ccc(C(=O)O)o2)c1` [1b, 5-(3-(Benzyloxy)-5-cyanophenyl)furan-2-carboxylic acid], for which the melting point came to 187 °C. Also, in data set [1], the IC50 was 15.6 ± 1.2 µM and the remaining activity at 100 µM amounted to 1.2 ± 0.4%. Besides, in the data set on M. bovis BCG [2] (setting [7]), the MIC99 was 250 µM (≈ 79.8 µg/mL).
Molecule `N#Cc1cc(OCCc2ccccc2)cc(-c2ccc(C(=O)O)o2)c1` [1c, 5-(3-Cyano-5-phenethoxyphenyl)furan-2-carboxylic acid] showed a melting point of 202 °C. In data set [1], the IC50 was ~3 µM and 3 µM; the remaining activity at 100 µM was 0.6 ± 0.5%. In the data set with M. bovis BCG [2] (setting [7]), the MIC99 is 250 µM (≈ 83.3 µg/mL).
The molecule `N#Cc1cc(OCCCc2ccccc2)cc(-c2ccc(C(=O)O)o2)c1` [1d, 5-(3-Cyano-5-(3-phenylpropoxy)phenyl)furan-2-carboxylic acid] yielded a melting point of 186 °C. Also, in data set [1], the “% RA (percentage of residual enzymatic activity)” value is 25.6 ± 5.8% and the remaining activity at 100 µM is roughly 25%.
`N#Cc1cc(OC/C=C/c2ccccc2)cc(-c2ccc(C(=O)O)o2)c1` [1e, (E)-5-(3-(Cinnamyloxy)-5-cyanophenyl)furan-2-carboxylic acid] had a melting point of 170 °C. In addition, in [1], the IC50 is 13.5 ± 1 µM and the remaining activity at 100 µM was 11.5 ± 1.7%. For the same molecule, in the data set on M. bovis BCG [2] (setting [7]), the MIC99 was roughly 125 µM (≈ 43.2 µg/mL). In the data set on M. bovis BCG [2], this molecule showed an MIC99 of 125 µM (≈ 43.2 µg/mL).
Take `N#Cc1cc(OCCOc2ccccc2)cc(-c2ccc(C(=O)O)o2)c1` [1f, 5-(3-Cyano-5-(2-phenoxyethoxy)phenyl)furan-2-carboxylic acid]: in [1], the IC50 is 12.1 ± 2 µM and the remaining activity at 100 µM amounted to 5.5 ± 2.4%. In addition, the “PLT, RBC, and WBC counts” value in data set [3] is “like untreated (NT) and DMSO-treated whole blood; also recorded: does not affect blood cell count; also recorded: no cytotoxicity against human cells”. For the same molecule, in the data set on M. bovis BCG [2] (setting [7]), the MIC99 came to 63 µM (≈ 22 µg/mL). Moreover, the “platelet activation markers: P-selectin, monocyte-platelet and granulocyte-platelet aggregates, aGPIIbIIIa” value with platelets (1 µM (highest concentration), 0, 30, 60 min) is given as “not affected”. Besides, in the data set on platelets (1 µM, 0, 30, 60 min), the “platelet-associated Tissue Factor expression, microvesicle formation” value is “not influenced”. Further, the “BCG_tdTomato fluorescence / eGFP in infected MPI-2_eGFP” value with M. bovis BCG [4] was “did not detect a reduction in Tdtomato fluorescence nor an increase in eGFP; also recorded: did not detect a significant efficacy in killing intracellular bacteria”. The “Mab_tdTomato load 3-days p.t with respect to the prior time point” value in the data set on M. abscessus (highest concentration tested (32 μM), plate reader) is “significantly reduced”. For the same molecule, in the data set on M. abscessus (up to 32 μM, 2- and 3-days p.t), the “intracellular Mab_tdTomato burden in infected cells (microscopy, image segmentation)” value was “did not display a decrease in the Mab_tdTomato burden”. Moreover, the “Mab infection clearance / Mab_tdTomato load in infected MPI-2_eGFP” value in the data set on M. abscessus (up to 32 μM, 2- and 3-days p.t, plate reader) is listed as “did not resolve Mab infection; also recorded: did not detect a significant efficacy in killing intracellular bacteria”. The “minimal concentration that prevented the production of siderophores” value with M. bovis BCG [5] (CAS assay, M. bovis BCG in chelated Sauton's medium) turned out to be 32 µM. Moreover, the “relation of antimycobacterial activity to inhibition of iron uptake (Universal CAS assay)” value in the data set on M. bovis BCG [5] (M. bovis BCG culture supernatants, 15 days) is “correlated to the inhibition of iron uptake; also recorded: positively related to the inhibition of iron uptake”.
As for `N#Cc1cc(OCCNc2ccccc2)cc(-c2ccc(C(=O)O)o2)c1` [1g, 5-(3-Cyano-5-(2-(phenylamino)ethoxy)phenyl)furan-2-carboxylic acid], in data set [1], the IC50 is ~18 µM and 18 µM; the remaining activity at 100 µM was found to be 9.3 ± 2.2%. In addition, in the data set with M. bovis BCG [2] (setting [7]), the MIC99 stood at 250 µM (≈ 87.1 µg/mL).
With `N#Cc1cc(Oc2ccc3ccccc3c2)cc(-c2ccc(C(=O)O)o2)c1` [1h, 5-(3-Cyano-5-(naphthalen-2-yloxy)phenyl)furan-2-carboxylic acid], the melting point was 226 °C. For the same molecule, in [1], the IC50 is 16.3 ± 1.2 µM and the remaining activity at 100 µM is 12.7 ± 2%. This molecule also yielded an MIC99 in the data set with M. bovis BCG [2] (setting [7]) of 125 µM (≈ 44.4 µg/mL).
As for `N#Cc1cc(Oc2ccc3cccnc3c2)cc(-c2ccc(C(=O)O)o2)c1` [1i, 5-(3-Cyano-5-(quinolin-7-yloxy)phenyl)furan-2-carboxylic acid], the melting point is 263 °C (dec.). In data set [1], the IC50 is 16.6 ± 1 µM and the remaining activity at 100 µM is 13.9 ± 3.1%. This molecule came in with an MIC99 against M. bovis BCG [2] (setting [7]) of 125 µM (≈ 44.5 µg/mL).
`N#Cc1cc(OCc2ccc3ccccc3c2)cc(-c2ccc(C(=O)O)o2)c1` [1j, 5-(3-Cyano-5-(naphthalen-2-ylmethoxy)phenyl)furan-2-carboxylic acid]: the melting point was 209 °C (dec.). Further, in [1], the IC50 is 34.8 ± 2.5 µM and the remaining activity at 100 µM is 19.8 ± 6.5%. For the same molecule, in the data set on M. bovis BCG [2] (setting [7]), the MIC99 worked out at 250 µM (≈ 92.3 µg/mL).
On to `N#Cc1cccc(-c2ccc(C(=O)O)o2)c1` [I, 5-(3-cyanophenyl)furan-2-carboxylic acid], for which the MIC99 in the data set on M. bovis BCG [6] is 250 µM (≈ 53.3 µg/mL).
